# Laboratory results as given in DBAASP.
# Experiments:
# Assay in all cases: ≥ marks a high value that may be exact or a test limit, other limits are often not marked, values filed in µg/mL are converted to µM
# Escherichia coli D31 = tested on: Escherichia coli D31
# [1] = tested on: Acinetobacter baumannii ATCC 19606
# [2] = tested on: Staphylococcus aureus ATCC 27660
# [3] = tested on: Pseudomonas aeruginosa ATCC 10145
# [4] = tested on: Pseudomonas aeruginosa 910
# [5] = tested on: Pseudomonas aeruginosa 919
# [6] = tested on: Pseudomonas aeruginosa PAO1
# [7] = tested on: Pseudomonas aeruginosa 253
# [8] = tested on: Escherichia coli DSM 1116
# [9] = tested on: Staphylococcus xylosus DSM 20267
# [10] = tested on: Franconibacter helveticus DSM 18390
# [11] = tested on: Bacillus subtilis DSM 347
# [12] = tested on: Staphylococcus epidermidis NBRC 12993
# [13] = tested on: Escherichia coli NBRC 3972
# [14] = tested on: Aspergillus oryzae NBRC 100959
# [15] = tested on: Candida viswanathii NBRC 10321
# [16] = tested on: Micrococcus luteus NBRC 3333
# [17] = tested on: Klebsiella pneumoniae E406-17
# [18] = tested on: Pseudomonas aeruginosa E411-17
# [19] = tested on: Staphylococcus aureus M838-17
structure (smiles),measurement,setting,value
C[C@H](N)C(=O)N[C@@H](C)C(=O)N[C@@H](Cc1c[nH]c2ccccc12)C(=O)N[C@@H](CCCCN)C(=O)N[C@@H](CCCCN)C(=O)N[C@@H](C)C(=O)N[C@@H](C)C(=O)N[C@@H](CCCCN)C(=O)N[C@@H](CCCCN)C(=O)N[C@@H](C)C(=O)N[C@@H](C)C(=O)N[C@@H](CCCCN)C(=O)N[C@@H](CO)C(=O)N[C@@H](C)C(=O)N[C@@H](CCCCN)C(=O)N[C@@H](CCCCN)C(=O)N[C@@H](C)C(=O)NCC(N)=O [AAWKKAAKKAAKSAKKAG],MIC,Escherichia coli D31,15 µM
same,MIC,[1],> 15 µM
same,MIC,[2],15 µM
same,MIC,[3],15 µM
CC[C@H](C)[C@H](NC(=O)[C@@H](N)Cc1ccccc1)C(=O)N[C@@H](CCCCN)C(=O)N[C@@H](CCCN=C(N)N)C(=O)N[C@@H](CCCCN)C(=O)N[C@@H](CO)C(=O)N[C@@H](CCCN=C(N)N)C(=O)N[C@@H](Cc1c[nH]c2ccccc12)C(=O)N[C@@H](Cc1c[nH]c2ccccc12)C(=O)N[C@@H](CCCCN)C(=O)N[C@@H](Cc1c[nH]c2ccccc12)C(=O)N[C@@H](CCCN=C(N)N)C(=O)N[C@H](C(N)=O)[C@@H](C)O [FIKRKSRWWKWRT],MIC,[4],8 µM
same,MIC,[5],≥ 32 µM
same,MIC,[6],4 µM
same,MIC,[7],11.3 µM
CC(C)C[C@H](NC(=O)[C@H](CCCCN)NC(=O)[C@H](CC(C)C)NC(=O)[C@H](CCCCN)NC(=O)[C@H](CC(C)C)NC(=O)[C@H](CCCCN)NC(=O)[C@H](CC(C)C)NC(=O)[C@H](CCCCN)NC(=O)[C@H](CC(C)C)NC(=O)[C@H](CCCCN)NC(=O)[C@H](CC(C)C)NC(=O)[C@H](CCCCN)NC(=O)[C@H](CC(C)C)NC(=O)[C@@H](N)CCCCN)C(N)=O [KLKLKLKLKLKLKL],MIC,[8],4.69 µM
same,MIC,[9],2.34 µM
same,MIC,[10],2.34 µM
same,MIC,[11],2.34 µM
CC[C@H](C)[C@H](NC(=O)[C@H](CCSC)NC(=O)[C@H](CCCN=C(N)N)NC(=O)[C@H](CCCN=C(N)N)NC(=O)[C@H](CC(C)C)NC(=O)[C@H](Cc1ccc(O)cc1)NC(=O)[C@H](CCCN=C(N)N)NC(=O)[C@H](CCCCN)NC(=O)[C@@H](NC(=O)[C@H](CCCCN)NC(=O)[C@@H](N)CCCN=C(N)N)[C@@H](C)CC)C(=O)N[C@@H](Cc1c[nH]c2ccccc12)C(=O)O [RKIKRYLRRMIW],MIC,[12],14.5 µM
same,MIC,[13],≥ 116 µM
same,MIC,[14],7.27 µM
same,MIC,[15],14.5 µM
same,MIC,[16],14.5 µM
CC(C)C[C@H](NC(=O)[C@H](Cc1c[nH]c2ccccc12)NC(=O)[C@H](Cc1c[nH]c2ccccc12)NC(=O)[C@H](Cc1c[nH]c2ccccc12)NC(=O)[C@H](CCCN=C(N)N)NC(=O)[C@H](CCCN=C(N)N)NC(=O)[C@H](CCCN=C(N)N)NC(=O)[C@@H](N)CCCN=C(N)N)C(N)=O [RRRRWWWL],MIC,[17],≥ 50 µM
same,MIC,[18],12.5 µM
same,MIC,[19],6.25 µM
